Measured values as given in ChEMBL document CHEMBL1155057, “Studies toward the discovery of the next generation of antidepressants. Part 6: Dual 5-HT1A receptor and serotonin transporter affinity within a class of arylpiperazinyl-cyclohexyl indole derivatives” (Bioorg Med Chem, 2008).

Key:
[1] = molecular target: Sodium-dependent serotonin transporter (Rattus norvegicus, UniProt P31652)
[2] = molecular target: T1, 5-hydroxytryptamine receptor 1A (Homo sapiens, UniProt P08908); experiment: biochemical
T1 sequence (P08908 whole entry): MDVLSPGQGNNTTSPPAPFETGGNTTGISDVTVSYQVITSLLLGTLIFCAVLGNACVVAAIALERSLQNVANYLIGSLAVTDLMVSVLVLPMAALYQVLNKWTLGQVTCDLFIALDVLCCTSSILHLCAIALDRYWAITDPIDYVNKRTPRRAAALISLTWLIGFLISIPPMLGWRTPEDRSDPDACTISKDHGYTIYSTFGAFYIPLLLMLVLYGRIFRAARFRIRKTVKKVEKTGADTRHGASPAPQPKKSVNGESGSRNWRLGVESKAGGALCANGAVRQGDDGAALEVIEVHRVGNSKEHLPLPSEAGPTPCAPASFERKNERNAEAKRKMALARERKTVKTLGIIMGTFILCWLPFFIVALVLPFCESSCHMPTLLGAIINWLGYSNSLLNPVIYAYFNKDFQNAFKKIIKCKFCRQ

[3] = molecular target: T2, 5-hydroxytryptamine receptor 1A (Homo sapiens) (UniProt P08908); experiment: Intrinsic activity at human 5HT1A receptor expressed in CHO cells by GTPgammaS binding assay relative to serotonin; assay type: functional, cell-based
T2 sequence (whole entry): T1 sequence (P08908 whole entry)

[4] = molecular target: Sodium-dependent serotonin transporter (Rattus norvegicus) (UniProt P31652); experiment: Displacement of [3H]paroxetine from rat cortical 5HTT reuptake site at 100 nM
Rattus norvegicus = species on record: Rattus norvegicus; details: 100 nM
Description: Displacement of 3H]paroxetine from rat cortical alpha1 adrenergic receptor at 100 nM

[5] = molecular target: Sodium-dependent serotonin transporter (Rattus norvegicus) (UniProt P31652); experiment: Displacement of [3H]paroxetine from rat cortical 5HTT reuptake site at 1 uM
[6] = molecular target: T2, 5-hydroxytryptamine receptor 1A (Homo sapiens); experiment: Displacement of [3H]8-OH-DPAT from human 5HT1A receptor expressed in CHO cells at 1 uM; assay type: cell-based

Sodium-dependent serotonin transporter (Rattus norvegicus), sequence (P31652 whole entry): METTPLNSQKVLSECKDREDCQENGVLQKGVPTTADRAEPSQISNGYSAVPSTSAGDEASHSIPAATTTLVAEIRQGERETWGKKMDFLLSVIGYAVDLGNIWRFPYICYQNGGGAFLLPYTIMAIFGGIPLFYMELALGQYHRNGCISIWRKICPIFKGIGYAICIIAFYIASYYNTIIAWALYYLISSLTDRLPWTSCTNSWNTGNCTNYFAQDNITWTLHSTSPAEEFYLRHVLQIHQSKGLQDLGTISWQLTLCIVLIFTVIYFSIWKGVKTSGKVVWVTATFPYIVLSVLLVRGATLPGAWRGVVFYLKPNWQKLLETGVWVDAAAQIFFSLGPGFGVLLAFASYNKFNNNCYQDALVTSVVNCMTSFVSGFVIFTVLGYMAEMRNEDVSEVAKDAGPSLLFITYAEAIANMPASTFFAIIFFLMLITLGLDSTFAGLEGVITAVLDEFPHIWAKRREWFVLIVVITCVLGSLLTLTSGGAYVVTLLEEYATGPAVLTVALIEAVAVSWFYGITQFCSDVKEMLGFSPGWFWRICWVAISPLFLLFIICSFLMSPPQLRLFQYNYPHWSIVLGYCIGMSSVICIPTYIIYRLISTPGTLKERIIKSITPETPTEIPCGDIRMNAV
Sodium-dependent serotonin transporter, sequence (P31652 whole entry): as above

Row | SMILES | Ki [1] | Ki [2] | Emax [3] | also measured
1 | Cn1cc([C@H]2CC[C@H](N3CCN(c4cccc5[nH]ccc45)CC3)CC2)c2cc(F)ccc21 | 67.5 nM | 90 nM |  | 
2 | Fc1ccc2[nH]cc([C@H]3CC[C@H](N4CCN(c5cccc6ncccc56)CC4)CC3)c2c1 | 73 nM | 8.3 nM | 0% | 
3 | Cc1[nH]c2ccccc2c1[C@H]1CC[C@@H](N2CCN(c3cccc4[nH]ccc34)CC2)CC1 |  |  |  | inhibition [4]: 4%
4 | N#Cc1ccc2[nH]cc([C@H]3CC[C@H](N4CCN(c5cccc6ncccc56)CC4)CC3)c2c1 | 4.9 nM | 6.2 nM | 3% | 
5 | Cc1nc2c(N3CCN([C@H]4CC[C@H](c5c[nH]c6ccccc65)CC4)CC3)cccc2[nH]1 | 115 nM | 3 nM | 0% | 
6 | Fc1cccc2[nH]cc([C@H]3CC[C@H](N4CCN(c5cccc6[nH]ccc56)CC4)CC3)c12 |  |  |  | inhibition [4]: 0%
7 | N#Cc1ccc2[nH]cc([C@H]3CC[C@H](N4CCN(c5cccc6nccnc56)CC4)CC3)c2c1 | 13.6 nM | 9.1 nM | 11% | 
8 | CC(C)n1cc([C@H]2CC[C@@H](N3CCN(c4cccc5[nH]ccc45)CC3)CC2)c2cc(C#N)ccc21 | 38.5 nM |  |  | 
9 | Fc1ccc2[nH]cc([C@H]3CC[C@@H](N4CCN(c5cccc6cccnc56)CC4)CC3)c2c1 |  |  | 20% | 
10 | Fc1ccc2c(c1)[nH]cc2[C@H]1CC[C@@H](N2CCN(c3cccc4[nH]ccc34)CC2)CC1 |  |  | 0% | 
11 | Clc1ccc2[nH]cc([C@H]3CC[C@@H](N4CCN(c5cccc6[nH]ccc56)CC4)CC3)c2c1 |  |  |  | inhibition [4]: 28%
12 | N#Cc1ccc2[nH]cc([C@H]3CC[C@@H](N4CCN(c5cccc6[nH]ccc56)CC4)CC3)c2c1 | 1.6 nM |  | 0% | 
13 | N#Cc1ccc2[nH]cc([C@H]3CC[C@H](N4CCN(c5cccc6[nH]ccc56)CC4)CC3)c2c1 | 8.5 nM |  | 11% | 
14 | Fc1ccc2[nH]cc([C@H]3CC[C@H](N4CCN(c5cccc6[nH]ccc56)CC4)CC3)c2c1 |  |  |  | inhibition (Rattus norvegicus): 16%
15 | Fc1cccc2[nH]cc([C@H]3CC[C@@H](N4CCN(c5cccc6[nH]ccc56)CC4)CC3)c12 |  |  |  | inhibition [4]: 27%
16 | c1cc(N2CCN([C@H]3CC[C@H](c4c[nH]c5ccccc54)CC3)CC2)c2cc[nH]c2c1 |  | 5.3 nM |  | 
17 | Cn1cc([C@H]2CC[C@@H](N3CCN(c4cccc5[nH]ccc45)CC3)CC2)c2cc(F)ccc21 | 11.6 nM | 124 nM |  | 
18 | C1=Nc2cccc(N3CCN([C@H]4CC[C@H](c5c[nH]c6ncccc65)CC4)CC3)c2C1 |  | 7.8 nM |  | inhibition [4]: 18%
19 | c1cc(N2CCN([C@H]3CC[C@@H](c4c[nH]c5ccccc54)CC3)CC2)c2cc[nH]c2c1 |  |  | 0% | 
20 | COc1ccc2[nH]cc([C@H]3CC[C@@H](N4CCN(c5cccc6[nH]ccc56)CC4)CC3)c2c1 |  |  |  | inhibition [4]: 25%

Row | SMILES | Ki [1] | Ki [2] | Emax [3] | also measured
21 | c1cc(N2CCN([C@H]3CC[C@H](c4c[nH]c5ccccc54)CC3)CC2)c2nc[nH]c2c1 | 75 nM | 1.7 nM | 0% | 
22 | c1cc(N2CCN([C@H]3CC[C@@H](c4c[nH]c5ccccc54)CC3)CC2)c2nc[nH]c2c1 | 13 nM | 7.9 nM | 0% | 
23 | Fc1ccc2[nH]cc([C@H]3CC[C@H](N4CCN(c5cccc6ccccc56)CC4)CC3)c2c1 |  | 42.6 nM | 71% | inhibition [5]: 38%
24 | COc1ccc2[nH]cc([C@H]3CC[C@H](N4CCN(c5cccc6[nH]ccc56)CC4)CC3)c2c1 |  | 2.9 nM |  | inhibition [5]: 45%
25 | N#Cc1ccc2[nH]cc([C@H]3CC[C@@H](N4CCN(c5cccc6cccnc56)CC4)CC3)c2c1 | 1.3 nM |  | 23% | 
26 | Fc1ccc2c(c1)[nH]cc2[C@H]1CC[C@H](N2CCN(c3cccc4[nH]ccc34)CC2)CC1 |  | 5.4 nM |  | 
27 | Cc1nc2c(N3CCN([C@H]4CC[C@@H](c5c[nH]c6ccccc65)CC4)CC3)cccc2[nH]1 | 61 nM | 10.7 nM | 0% | 
28 | N#Cc1ccc2[nH]cc([C@H]3CC[C@@H](N4CCN(c5cccc6nccnc56)CC4)CC3)c2c1 | 1.1 nM | 156 nM | 0% | 
29 | Fc1ccc2[nH]cc([C@H]3CC[C@H](N4CCN(c5cccc6cccnc56)CC4)CC3)c2c1 |  |  | 66% | 
30 | CCCn1cc([C@H]2CC[C@H](N3CCN(c4cccc5[nH]ccc45)CC3)CC2)c2cc(C#N)ccc21 |  |  |  | inhibition [6]: 46%
31 | Clc1ccc2[nH]cc([C@H]3CC[C@H](N4CCN(c5cccc6[nH]ccc56)CC4)CC3)c2c1 |  |  |  | inhibition [5]: 20%
32 | Fc1ccc2[nH]cc([C@H]3CC[C@@H](N4CCN(c5cccc6ccccc56)CC4)CC3)c2c1 | 640 nM |  | 34% | inhibition [6]: 46%
33 | FC(F)(F)c1nc2c(N3CCN([C@H]4CC[C@H](c5c[nH]c6ccccc65)CC4)CC3)cccc2[nH]1 | 75 nM | 3.6 nM | 29% | 
34 | FC(F)(F)c1nc2c(N3CCN([C@H]4CC[C@@H](c5c[nH]c6ccccc65)CC4)CC3)cccc2[nH]1 | 105 nM | 16.1 nM | 0% | 
35 | C1=Nc2cccc(N3CCN([C@H]4CC[C@@H](c5c[nH]c6ncccc65)CC4)CC3)c2C1 |  | 15.8 nM |  | inhibition [4]: 0%
36 | Fc1ccc2[nH]cc([C@H]3CC[C@@H](N4CCN(c5cccc6ncccc56)CC4)CC3)c2c1 | 13.8 nM | 97.2 nM | 0% | 
37 | Cc1[nH]c2ccccc2c1[C@H]1CC[C@H](N2CCN(c3cccc4[nH]ccc34)CC2)CC1 |  |  |  | inhibition [4]: 12%
38 | CC(C)n1cc([C@H]2CC[C@H](N3CCN(c4cccc5[nH]ccc45)CC3)CC2)c2cc(C#N)ccc21 |  |  |  | inhibition [4]: 16%; inhibition [6]: 46%
39 | N#Cc1ccc2[nH]cc([C@H]3CC[C@H](N4CCN(c5cccc6cccnc56)CC4)CC3)c2c1 | 20 nM |  | 0% | 
40 | N#Cc1ccc2[nH]cc([C@H]3CC[C@@H](N4CCN(c5cccc6ncccc56)CC4)CC3)c2c1 | 3.5 nM | 58.1 nM | 0% | 
